Molecular target: T1, penicillin acylase (PA) from Escherichia coli (Escherichia coli, UniProt P06875)
T1 construct: gene pac; mature alpha/beta heterodimer processed from one precursor; recombinant from plasmid pEC in E. coli, purified
Assay: initial rate hydrolysis, enantioselectivity from kcat/Km ratio
Format: biochemical

T1 sequence (P06875 27-235): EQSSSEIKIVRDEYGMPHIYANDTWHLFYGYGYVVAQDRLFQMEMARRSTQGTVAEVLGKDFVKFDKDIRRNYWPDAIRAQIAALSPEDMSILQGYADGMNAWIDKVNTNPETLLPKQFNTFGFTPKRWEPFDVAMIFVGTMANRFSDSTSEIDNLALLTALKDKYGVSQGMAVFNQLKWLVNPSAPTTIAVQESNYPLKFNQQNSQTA
T1 sequence (P06875 290-846): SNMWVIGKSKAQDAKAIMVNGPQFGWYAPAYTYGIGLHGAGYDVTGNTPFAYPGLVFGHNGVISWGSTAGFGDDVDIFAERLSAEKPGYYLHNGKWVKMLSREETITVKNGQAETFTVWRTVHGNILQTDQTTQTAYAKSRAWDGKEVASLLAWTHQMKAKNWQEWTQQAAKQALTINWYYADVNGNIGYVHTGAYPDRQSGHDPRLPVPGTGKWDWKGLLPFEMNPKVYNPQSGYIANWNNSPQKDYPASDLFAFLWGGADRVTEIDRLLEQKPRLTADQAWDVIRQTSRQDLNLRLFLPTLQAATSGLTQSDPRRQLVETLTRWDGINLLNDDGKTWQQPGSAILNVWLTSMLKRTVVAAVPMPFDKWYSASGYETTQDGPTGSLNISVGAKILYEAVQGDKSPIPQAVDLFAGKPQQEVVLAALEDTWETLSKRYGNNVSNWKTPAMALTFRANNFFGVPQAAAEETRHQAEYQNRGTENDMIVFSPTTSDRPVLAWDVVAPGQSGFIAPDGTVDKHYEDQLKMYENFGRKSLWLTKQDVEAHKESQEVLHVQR

For `O=C(Cc1ccccc1)N[C@H](C(=O)O)c1ccccc1` [N-phenylacetyl-L-phenylglycine], the “initial rate hydrolysis, enantioselectivity from kcat/Km ratio” value was “WT PA exhibits already a very good chiral discrimination of N-phenylacetyl-phenylglycine enantiomers”.
